Here are results for 25 molecules from US20220135591A1, “HETEROCYCLIC COMPOUNDS AS INHIBITORS OF MONOACYLGLYCEROL LIPASE (MAGL)” (Hoffmann-La Roche Inc., priority 2019, published 2022).

The IC50 is the concentration needed to halve the response being measured.

This test deals with T1, MAGL (Homo sapiens, UniProt Q99685).
T1 sequence (Q99685 1-303): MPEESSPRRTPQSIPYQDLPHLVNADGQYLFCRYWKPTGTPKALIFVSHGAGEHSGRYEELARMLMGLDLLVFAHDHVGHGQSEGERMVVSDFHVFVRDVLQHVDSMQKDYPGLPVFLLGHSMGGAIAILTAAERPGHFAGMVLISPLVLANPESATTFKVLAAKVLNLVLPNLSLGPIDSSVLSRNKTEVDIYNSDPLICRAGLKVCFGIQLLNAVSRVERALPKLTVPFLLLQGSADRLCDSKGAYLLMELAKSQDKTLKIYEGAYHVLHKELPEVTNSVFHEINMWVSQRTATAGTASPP
In words: 2-AG assay: MAGL inhibitory activity by hydrolysis of 2-arachidonoylglycerol to arachidonic acid, mass spectrometry. The format is biochemical. The conditions noted are these: 2-AG assay (values marked [b]). How it is done: Alternatively, compounds were profiled for MAGL inhibitory activity by determining the enzymatic activity by following the hydrolysis of the natural substrate 2-arachidonoylglycerol (2-AG) resulting in arachidonic acid, which can be followed by mass spectrometry. This assay is hereinafter abbreviated “2-AG assay”.
The 2-AG assay was carried out in 384 well assay plates (PP, Greiner Cat #784201) in a total volume of 20 μL. Compound dilutions were made in 100% DMSO (VWR Chemicals 23500.297) in a polypropylene plate in 3-fold dilution steps to give a final concentration range in the assay from 12.5 μM to […]. 0.25 μL compound dilutions (100% DMSO) were added to 9 μL MAGL in assay buffer (50 mM TRIS (GIBCO, 15567-027), 1 mM EDTA (Fluka, 03690-100 mL), 0.01% (v/v) Tween. After shaking, the plate was incubated for 15 min at RT. To start the reaction, 10 μL 2-arachidonoylglycerol in assay buffer was added. The final concentrations in the assay was […] and 8 μM 2-arachidonoylglyerol. After shaking and 30 min incubation at RT, the reaction was quenched by the addition of 40 μL of ACN containing 4 μM of d8-arachidonic acid. The amount of arachidonic acid was traced by an online SPE system (Agilent Rapidfire) coupled to a triple quadrupole mass spectrometer (Agilent 6460). A C18 SPE cartridge (G9205A) was used in an ACN/water liquid setup. The mass spectrometer was operated in negative electrospray mode following the mass transitions 303.1→259.1 for arachidonic acid and 311.1→267.0 for d8-arachidonic acid. The activity of the compounds was calculated based on the ratio of intensities [arachidonic acid/d8-arachidonic acid].
`CC(C)(C)Cn1cc(-c2ccc(C(=O)N3CCN(c4nc5nc(Cl)ccc5o4)C[C@H]3CO)cc2)nn1` (stereo in doubt) [Example 289, [(2S)-4-(5-chlorooxazolo[4,5-b]pyridin-2-yl)-2-(hydroxymethyl)piperazin-1-yl]-[4-[1-(2,2-dimethylpropyl)triazol-4-yl]phenyl]methanone] showed an IC50 of 63 nM. As to `CC(C)(C)Cn1cc(-c2ccc(C(=O)N3CCN(c4nc5nc(Cl)ccc5o4)C[C@@H]3CO)cc2)nn1` (stereo in doubt) [Example 290, [(2R)-4-(5-chlorooxazolo[4,5-b]pyridin-2-yl)-2-(hydroxymethyl)piperazin-1-yl]-[4-[1-(2,2-dimethylpropyl)triazol-4-yl]phenyl]methanone], the IC50 turned out to be 2070 nM. Turning to `Cc1ccc2oc(N3CCN(C(=O)c4ccc(-c5nnc(CC(C)(C)C)n5C)cc4)CC3)nc2n1` [Example 74, [4-[5-(2,2-dimethylpropyl)-4-methyl-1,2,4-triazol-3-yl]phenyl]-[4-(5-methyloxazolo[4,5-b]pyridin-2-yl)piperazin-1-yl]methanone], the IC50 amounted to 327 nM.

For `Cc1ccc2oc(N3CCN(C(=O)c4ccc(-c5cn(CC(C)(C)C)nn5)cc4)CC3)nc2n1` [Example 75, [4-[1-(2,2-dimethylpropyl)triazol-4-yl]phenyl]-[4-(5-methyloxazolo[4,5-b]pyridin-2-yl)piperazin-1-yl]methanone], half-maximal inhibition (IC50) required 19 nM.

For `Cn1c(-c2ccc(C(=O)N3CCN(c4nc5nc(Cl)ccc5o4)CC3)cc2)nnc1C(C)(C)C` [Example 76, [4-(5-tert-butyl-4-methyl-1,2,4-triazol-3-yl)phenyl]-[4-(5-chlorooxazolo[4,5-b]pyridin-2-yl)piperazin-1-yl]methanone], it took 1310 nM to reach half-maximal inhibition (IC50). In the case of `Cc1ccc2oc(N3CCN(C(=O)c4ccc(-c5nnc(C(C)(C)C)n5C)cc4)CC3)nc2n1` [Example 77, [4-(5-tert-butyl-4-methyl-1,2,4-triazol-3-yl)phenyl]-[4-(5-methyloxazolo[4,5-b]pyridin-2-yl)piperazin-1-yl]methanone], the IC50 turned out to be 2320 nM.

`CC(C)(C)c1nc(-c2ccc(C(=O)N3CCN(c4nc5nc(Cl)ccc5o4)CC3)cc2Cl)no1` [Example 78, [4-(5-tert-butyl-1,2,4-oxadiazol-3-yl)-3-chloro-phenyl]-[4-(5-chlorooxazolo[4,5-b]pyridin-2-yl)piperazin-1-yl]methanone] gave a concentration for half-maximal inhibition (IC50) of 4 nM. For `Cc1ccc2oc(N3CCN(C(=O)c4ccc(-c5noc(C(C)(C)C)n5)c(Cl)c4)CC3)nc2n1` [Example 79, [4-(5-tert-butyl-1,2,4-oxadiazol-3-yl)-3-chloro-phenyl]-[4-(5-methyloxazolo[4,5-b]pyridin-2-yl)piperazin-1-yl]methanone], half-maximal inhibition (IC50) required 24 nM. With `CC(C)(C)c1nc(-c2c(F)cc(C(=O)N3CCN(c4nc5nc(Cl)ccc5o4)CC3)cc2F)no1` [Example 80, [4-(5-tert-butyl-1,2,4-oxadiazol-3-yl)-3,5-difluoro-phenyl]-[4-(5-chlorooxazolo[4,5-b]pyridin-2-yl)piperazin-1-yl]methanone], the IC50 was determined as 21 nM.

Consider `CC(C)(C)c1nc(-c2ccc(C(=O)N3CCN(c4nc5nc(Cl)ccc5o4)CC3)cc2C(F)(F)F)no1` [Example 81, [4-(5-tert-butyl-1,2,4-oxadiazol-3-yl)-3-(trifluoromethyl)phenyl]-[4-(5-chlorooxazolo[4,5-b]pyridin-2-yl)piperazin-1-yl]methanone], for which the IC50 turned out to be 9 nM. As for `Cc1ccc2oc(N3CCN(C(=O)c4ccc(-c5nnc(C(C)(C)C)o5)c(C)c4)CC3)nc2n1` [Example 82, [4-(5-tert-butyl-1,3,4-oxadiazol-2-yl)-3-methyl-phenyl]-[4-(5-methyloxazolo[4,5-b]pyridin-2-yl)piperazin-1-yl]methanone], the figure is 37 nM. As to `Cc1cc(C(=O)N2CCN(c3nc4nc(Cl)ccc4o3)CC2)ccc1-c1nnc(C(C)(C)C)o1` [Example 83, [4-(5-tert-butyl-1,3,4-oxadiazol-2-yl)-3-methyl-phenyl]-[4-(5-chlorooxazolo[4,5-b]pyridin-2-yl)piperazin-1-yl]methanone], the IC50 is 11 nM.

With `CC(C)(C)Cn1ncc(-c2ccc(C(=O)N3CCN(c4nc5nc(Cl)ccc5o4)CC3)cc2F)n1` [Example 84, (4-(5-chlorooxazolo[4,5-b]pyridin-2-yl)piperazin-1-yl)(3-fluoro-4-(2-neopentyl-2H-1,2,3-triazol-4-yl)phenyl)methanone], 2 nM corresponded to half-maximal inhibition (IC50). As for `Cc1ccc2oc(N3CCN(C(=O)c4ccc(-c5cnn(CC(C)(C)C)n5)c(F)c4)CC3)nc2n1` [Example 85, (3-fluoro-4-(2-neopentyl-2H-1,2,3-triazol-4-yl)phenyl)(4-(5-methyloxazolo[4,5-b]pyridin-2-yl)piperazin-1-yl)methanone], the figure is 5 nM; as for `CC(C)(C)Cn1cc(-c2ccc(C(=O)N3CCN(c4nc5nc(Cl)ccc5o4)CC3)cc2F)nn1` [Example 86, (4-(5-chlorooxazolo[4,5-b]pyridin-2-yl)piperazin-1-yl)(3-fluoro-4-(1-neopentyl-1H-1,2,3-triazol-4-yl)phenyl)methanone], 2 nM. On to `Cc1ccc2oc(N3CCN(C(=O)c4ccc(-c5cn(C(C)(C)C)nn5)cc4)CC3)nc2n1` [Example 87, (4-(1-(tert-butyl)-1H-1,2,3-triazol-4-yl)phenyl)(4-(5-methyloxazolo[4,5-b]pyridin-2-yl)piperazin-1-yl)methanone], for which half-maximal inhibition (IC50) was put at 151 nM.

In the case of `CC(C)(C)n1cc(-c2ccc(C(=O)N3CCN(c4nc5nc(Cl)ccc5o4)CC3)cc2)nn1` [Example 88, (4-(1-(tert-butyl)-1H-1,2,3-triazol-4-yl)phenyl)(4-(5-chlorooxazolo[4,5-b]pyridin-2-yl)piperazin-1-yl)methanone], the IC50 is 71 nM.

`Cc1ccc2oc(N3CCN(C(=O)c4ccc(-c5ncn(C(C)(C)C)n5)c(Cl)c4)CC3)nc2n1` [Example 89, (4-(1-(tert-butyl)-1H-1,2,4-triazol-3-yl)-3-chlorophenyl)(4-(5-methyloxazolo[4,5-b]pyridin-2-yl)piperazin-1-yl)methanone] had an IC50 of 25 nM.

As to `CC(C)(C)n1cnc(-c2ccc(C(=O)N3CCN(c4nc5nc(Cl)ccc5o4)CC3)cc2Cl)n1` [Example 90, (4-(1-(tert-butyl)-1H-1,2,4-triazol-3-yl)-3-chlorophenyl)(4-(5-chlorooxazolo[4,5-b]pyridin-2-yl)piperazin-1-yl)methanone], the IC50 worked out at 16 nM. `CC(C)(C)Cn1ncc(-c2c(F)cc(C(=O)N3CCN(c4nc5nc(Cl)ccc5o4)CC3)cc2F)n1` [Example 91, (4-(5-chlorooxazolo[4,5-b]pyridin-2-yl)piperazin-1-yl)(3,5-difluoro-4-(2-neopentyl-2H-1,2,3-triazol-4-yl)phenyl)methanone] came in with an IC50 of 3 nM. Molecule `Cc1ccc2oc(N3CCN(C(=O)c4cc(F)c(-c5cnn(CC(C)(C)C)n5)c(F)c4)CC3)nc2n1` [Example 92, (3,5-difluoro-4-(2-neopentyl-2H-1,2,3-triazol-4-yl)phenyl)(4-(5-methyloxazolo[4,5-b]pyridin-2-yl)piperazin-1-yl)methanone] returned an IC50 of 10 nM. As for `CC(C)(C)Cn1cc(-c2c(F)cc(C(=O)N3CCN(c4nc5nc(Cl)ccc5o4)CC3)cc2F)nn1` [Example 93, (4-(5-chlorooxazolo[4,5-b]pyridin-2-yl)piperazin-1-yl)(3,5-difluoro-4-(1-neopentyl-1H-1,2,3-triazol-4-yl)phenyl)methanone], the figure is 7 nM.

The molecule `Cc1ccc2oc(N3CCN(C(=O)c4ccc(-c5cn(C67CC(C6)C7)nn5)cc4)CC3)nc2n1` [Example 94, (4-(1-(bicyclo[1.1.1]pentan-1-yl)-1H-1,2,3-triazol-4-yl)phenyl)(4-(5-methyloxazolo[4,5-b]pyridin-2-yl)piperazin-1-yl)methanone] gave an IC50 of 88 nM. `O=C(c1ccc(-c2cn(C34CC(C3)C4)nn2)cc1)N1CCN(c2nc3nc(Cl)ccc3o2)CC1` [Example 95, (4-(1-(bicyclo[1.1.1]pentan-1-yl)-1H-1,2,3-triazol-4-yl)phenyl)(4-(5-chlorooxazolo[4,5-b]pyridin-2-yl)piperazin-1-yl)methanone] showed an IC50 of 42 nM. As for `Cc1ccc2oc(N3CCN(C(=O)c4ccc(-c5ncn(C(C)(C)C)n5)c(C)c4)CC3)nc2n1` [Example 96, (4-(1-(tert-butyl)-1H-1,2,4-triazol-3-yl)-3-methylphenyl)(4-(5-methyloxazolo[4,5-b]pyridin-2-yl)piperazin-1-yl)methanone], the figure is 23 nM.
